Data on 19 compounds can be found in patent US10745377B2, “Piperidine or piperazine linked imidazole and triazole derivatives and methods of use” (MERCK SHARP & DOHME CORP., priority 2013, dated 2020).

What all share (format): biochemical
For one experiment, the target named is T1, CYP2D6 (Homo sapiens, UniProt P10635).
T1 construct: 0.1 mg/mL protein human liver microsomes (BD Gentest); tissue BD Gentest; host or cells: human liver microsomes
Nature of the experiment: Cocktail assay for CYPs in human liver microsomes: CYP2D6 (dextromethorphan O-demethylation). Particulars: 5 μM dextromethorphan, 10 min at 37° C., 6 concentrations up to 10 μM. (Microsomes from liver hold many membrane-bound enzymes, among them those of drug oxidation.)

The next experiment deals with T2, CYP2C9 (Homo sapiens, UniProt P11712).
T2 construct: 0.1 mg/mL protein human liver microsomes (BD Gentest); tissue BD Gentest; host or cells: human liver microsomes
Nature of the experiment: Cocktail assay for CYPs in human liver microsomes: CYP2C9 (diclofenac 4′-hydroxylation). Particulars: 5 μM diclofenac, 10 min at 37° C., 6 concentrations up to 10 μM.

Another experiment concerns the target T3, CYP1A2 (Homo sapiens, UniProt P05177).
T3 construct: 0.1 mg/mL protein human liver microsomes (BD Gentest); tissue BD Gentest; host or cells: human liver microsomes
T3 sequence (P05177 1-516): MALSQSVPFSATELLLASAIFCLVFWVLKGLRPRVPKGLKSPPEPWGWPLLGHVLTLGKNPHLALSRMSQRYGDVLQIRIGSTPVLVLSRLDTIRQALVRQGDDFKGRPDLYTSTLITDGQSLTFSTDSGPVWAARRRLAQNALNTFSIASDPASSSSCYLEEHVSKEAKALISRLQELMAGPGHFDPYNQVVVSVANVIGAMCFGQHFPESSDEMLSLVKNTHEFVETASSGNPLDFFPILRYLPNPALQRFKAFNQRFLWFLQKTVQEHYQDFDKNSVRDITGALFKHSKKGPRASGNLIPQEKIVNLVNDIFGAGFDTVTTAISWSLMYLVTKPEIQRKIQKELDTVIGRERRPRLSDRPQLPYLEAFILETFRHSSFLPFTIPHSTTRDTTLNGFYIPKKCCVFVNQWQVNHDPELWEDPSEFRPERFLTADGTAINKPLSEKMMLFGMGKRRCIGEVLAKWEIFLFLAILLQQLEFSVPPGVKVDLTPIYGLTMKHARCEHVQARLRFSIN
The experiment can be described thus: Cocktail assay for CYPs in human liver microsomes: CYP1A2 (phenacetin O-deethylation).

Another experiment concerns the target T4, CYP2C19 (Homo sapiens, UniProt P33261).
T4 construct: 0.1 mg/mL protein human liver microsomes (BD Gentest); tissue BD Gentest; host or cells: human liver microsomes
The experiment can be described thus: Cocktail assay for CYPs in human liver microsomes: CYP2C19 (mephenytoin 4′-hydroxylation). Conditions: 30 μM mephenytoin, 10 min at 37° C., 6 concentrations up to 10 μM.

The target of another experiment is T5, CYP3A4 (Homo sapiens, UniProt P08684).
T5 construct: 0.1 mg/mL protein human liver microsomes (BD Gentest); tissue BD Gentest; host or cells: human liver microsomes
The experiment can be described thus: Cocktail assay for CYPs in human liver microsomes: CYP3A4 (midazolam 1′-hydroxylation). Particulars: 2 μM midazolam, 10 min at 37° C., 6 concentrations up to 10 μM.

The mark [1] stands for this setting: human liver microsomes 0.1 mg/mL, read-out: IC50 (nM) CYP2D6.
Where [2] appears, read: human liver microsomes 0.1 mg/mL, read-out: IC50 (nM) CYP2C9.
The mark [3] stands for this setting: human liver microsomes 0.1 mg/mL, 10 μM phenacetin, 10 min at 37° C., 6 concentrations up to 10 μM, read-out: IC50 (nM) CYP1A2.
The mark [4] stands for this setting: human liver microsomes 0.1 mg/mL, read-out: IC50 (nM) CYP2C19.
Setting [5] is: human liver microsomes 0.1 mg/mL, read-out: IC50 (nM) CYP3A4.

The structures appear in SMILES notation. Where two headings read alike, the source gives them in different places. A value given as a limit tells only on which side of the number the result lay.

T2 sequence (P11712 whole entry): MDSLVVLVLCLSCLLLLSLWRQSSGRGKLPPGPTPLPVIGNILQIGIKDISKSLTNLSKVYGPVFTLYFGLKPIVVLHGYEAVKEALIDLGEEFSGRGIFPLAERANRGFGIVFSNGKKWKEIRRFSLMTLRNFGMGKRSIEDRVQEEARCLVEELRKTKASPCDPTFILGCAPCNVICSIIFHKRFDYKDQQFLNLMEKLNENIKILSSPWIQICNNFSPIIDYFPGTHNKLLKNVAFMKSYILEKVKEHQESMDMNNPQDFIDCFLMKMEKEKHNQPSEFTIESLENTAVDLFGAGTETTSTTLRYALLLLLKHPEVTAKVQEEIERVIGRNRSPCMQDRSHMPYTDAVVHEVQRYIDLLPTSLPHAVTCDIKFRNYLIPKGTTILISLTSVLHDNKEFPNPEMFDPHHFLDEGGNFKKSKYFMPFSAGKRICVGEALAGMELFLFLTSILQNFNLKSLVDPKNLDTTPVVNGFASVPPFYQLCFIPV
T1 sequence (P10635 whole entry): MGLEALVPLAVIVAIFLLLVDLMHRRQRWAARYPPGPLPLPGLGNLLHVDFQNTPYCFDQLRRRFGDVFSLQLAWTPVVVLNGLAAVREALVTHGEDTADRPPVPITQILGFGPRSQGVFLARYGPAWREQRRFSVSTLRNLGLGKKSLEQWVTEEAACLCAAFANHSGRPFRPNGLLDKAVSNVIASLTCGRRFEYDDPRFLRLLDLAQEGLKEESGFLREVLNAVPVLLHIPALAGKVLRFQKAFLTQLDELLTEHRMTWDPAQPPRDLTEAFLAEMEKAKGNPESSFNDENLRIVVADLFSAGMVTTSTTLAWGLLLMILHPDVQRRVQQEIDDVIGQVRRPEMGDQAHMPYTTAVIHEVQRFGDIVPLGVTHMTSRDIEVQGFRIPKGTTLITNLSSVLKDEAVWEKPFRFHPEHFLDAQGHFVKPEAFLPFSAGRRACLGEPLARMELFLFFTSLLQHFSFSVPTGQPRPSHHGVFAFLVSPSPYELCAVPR
T5 sequence (P08684 whole entry): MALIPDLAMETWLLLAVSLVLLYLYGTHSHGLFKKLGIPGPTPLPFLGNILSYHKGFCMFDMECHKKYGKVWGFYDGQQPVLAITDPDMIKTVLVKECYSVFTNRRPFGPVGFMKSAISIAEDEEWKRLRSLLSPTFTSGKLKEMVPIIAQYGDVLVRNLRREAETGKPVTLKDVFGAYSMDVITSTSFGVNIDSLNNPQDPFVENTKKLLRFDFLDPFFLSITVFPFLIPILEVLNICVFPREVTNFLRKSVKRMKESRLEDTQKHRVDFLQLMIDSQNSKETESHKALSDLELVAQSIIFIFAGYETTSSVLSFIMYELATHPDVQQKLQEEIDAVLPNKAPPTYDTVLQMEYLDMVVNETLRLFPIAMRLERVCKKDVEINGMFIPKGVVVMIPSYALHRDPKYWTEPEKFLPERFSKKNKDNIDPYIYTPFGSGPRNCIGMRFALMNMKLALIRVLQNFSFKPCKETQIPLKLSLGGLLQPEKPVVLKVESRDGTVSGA
T4 sequence (P33261 whole entry): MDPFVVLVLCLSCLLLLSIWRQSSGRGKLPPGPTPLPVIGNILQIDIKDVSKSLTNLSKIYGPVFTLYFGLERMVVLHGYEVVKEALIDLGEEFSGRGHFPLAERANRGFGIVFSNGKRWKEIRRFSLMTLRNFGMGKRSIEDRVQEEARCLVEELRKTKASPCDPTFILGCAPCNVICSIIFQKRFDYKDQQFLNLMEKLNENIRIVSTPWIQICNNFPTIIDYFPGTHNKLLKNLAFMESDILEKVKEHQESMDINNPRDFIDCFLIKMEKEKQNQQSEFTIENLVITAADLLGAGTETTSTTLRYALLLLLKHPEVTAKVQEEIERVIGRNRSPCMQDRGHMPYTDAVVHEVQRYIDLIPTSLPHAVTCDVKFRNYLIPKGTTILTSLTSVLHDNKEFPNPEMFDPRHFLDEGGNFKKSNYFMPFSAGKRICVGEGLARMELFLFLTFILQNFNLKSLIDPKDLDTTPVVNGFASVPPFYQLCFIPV
Description for CYP1A2: (§1) Determination of IC50 in a Cocktail Assay for CYPs 1A2, 2C9, 2C19, 2D6 and 3A4
(§2) This assay was performed in a standard 96-well plate design. […] The incubation substrate mix contains 10 μM phenacetin (1A2), 5 μM diclofenac (2C9), 30 μM mephenytoin (2C19), 5 μM dextromethorphan (2D6) and 2 μM midazolam (3A4), 0.1 mg/mL protein human liver microsomes (BD Gentest), 1 mM NAPDH, 3.3 mM MgCl2 and 100 mM potassium phosphate buffer (pH 7.4). The production of the metabolite of each probe substrate was determined after incubation for 10 min at 37° C. Quantitation of the metabolite peak area ratio against an internal standard (tolbutamide) was determined by LC/MS/MS analysis following acetonitrile treatment of the incubations.
(§3) Samples were analyzed in the MRM mode with a SCIEX API-4000 mass spectrometer (Applied Biosystems, Foster City, Calif.), with a Shimadzu LC-20 AD pump (Shimadzu corporation, Kyoto, JP) and a CTC PAL autosampler (Agilent Technologies, Switzerland). A Phenomenex, Luna, 5 μm, 100 A, 2.00×30 mm HPLC column was used for the separation. The mobile phases were: (A) 0.1% formic acid in water and (B) 0.1% formic acid in acetonitrile. The binary gradient was as follows.
(§4) The mass spectrum parameters were as follows:
(§5) The LC/MS/MS parameters for the analytes were as follows.
(§6) The peak area ratio of the analyte to the internal standard was used to quantify the metabolite. The values of peak area ratios in the presence of test compound were compared to those of maximum or minimum controls and were expressed as % inhibition by interpolating between the maximum and minimum peak area ratios. Incubations with no inhibitor were defined as the maxima.
(§7) The following equation was used to calculate the % inhibition: [1−[(X−Low control)/(High control−Low control)]]*100
(§8) For the IC50 calculation, SigmaPlot was used to plot the mean % inhibition versus the test compound concentrations and for non-linear regression analysis of the data. Depending on the range of data points defining the inhibition curve, the data may have been fit to the 4-parameter logistic equation.
Description for CYP2C9: as §1, §2, §3, §4, §5, §6, §7, §8
Description for CYP2D6: as §1, §2, §3, §4, §5, §6, §7, §8
Description for CYP3A4: as §1, §2, §3, §4, §5, §6, §7, §8

Take `C[C@H](c1ccc(C#N)cc1)n1cncc1CN1CCN(c2ccccc2)C(C(=O)N2CCCCC2)C1` (single isomer, unassigned) [Compound 45a]: the concentration for half-maximal inhibition (IC50) at CYP2D6 (setting [1]) was more than 10000 nM; on CYP2C9 (setting [2]), 7770 nM; at CYP1A2 (setting [3]) it was more than 10000 nM; on CYP2C19 (setting [4]), 5500 nM; on CYP3A4 (setting [5]), 12 nM.

With `C[C@H](c1ccc(C#N)cc1)n1cncc1CN1CCN(c2ccccc2)C(C(=O)N2CCCCC2)C1` (single isomer, unassigned) [Compound 45b], the 50% inhibitory concentration (IC50) on CYP2D6 (setting [1]) was more than 10000 nM; on CYP2C9 (setting [2]), 4000 nM; at CYP1A2 (setting [3]) it was more than 10000 nM; at CYP2C19 (setting [4]), 5180 nM; on CYP3A4 (setting [5]), 20 nM.

As to `C[C@H](c1ccc(F)cc1)n1cncc1CN1CCN(C(=O)c2ccccc2)C(c2ccccc2)C1` (single isomer, unassigned) [Compound 50a], the 50% inhibitory concentration (IC50) at CYP2D6 (setting [1]) is 4000 nM; on CYP2C9 (setting [2]) it was 4360 nM; at CYP1A2 (setting [3]), more than 10000 nM; on CYP2C19 (setting [4]) it was 4330 nM; at CYP3A4 (setting [5]), 16 nM.

Turning to `C[C@H](c1ccc(F)cc1)n1cncc1CN1CCN(C(=O)c2ccccc2)C(c2ccccc2)C1` (single isomer, unassigned) [Compound 50b], the IC50 on CYP2D6 (setting [1]) was more than 10000 nM; at CYP2C9 (setting [2]), 1280 nM; on CYP1A2 (setting [3]) it was more than 10000 nM; at CYP2C19 (setting [4]), 4400 nM; on CYP3A4 (setting [5]), 5 nM.

On to `C[C@H](c1ccc(F)cc1)n1cncc1CN1CCN(C(=O)C2CCOCC2)C(c2ccccc2)C1` (single isomer, unassigned) [Compound 52a], for which the half-inhibitory concentration (IC50) on CYP2D6 (setting [1]) was more than 10000 nM; on CYP2C9 (setting [2]) it was more than 10000 nM; at CYP1A2 (setting [3]), more than 10000 nM; on CYP2C19 (setting [4]), 8490 nM; on CYP3A4 (setting [5]) it was 7 nM.

Turning to `C[C@H](c1ccc(F)cc1)n1cncc1CN1CCN(C(=O)C2CCOCC2)C(c2ccccc2)C1` (single isomer, unassigned) [Compound 52b], the IC50 is more than 10000 nM on CYP2D6 (setting [1]); 6200 nM at CYP2C9 (setting [2]); more than 10000 nM on CYP1A2 (setting [3]); 3670 nM on CYP2C19 (setting [4]); 27 nM on CYP3A4 (setting [5]).

For the compound `CCC1(C#N)CCN(Cc2cncn2[C@H](C)c2ccc(F)cc2)CC1` [Compound 1, (R)-4-Ethyl-1-((1-(1-(4-fluorophenyl)ethyl)-1H-imidazol-5-yl)methyl)piperidine-4-carbonitrile], the IC50 at CYP2D6 (setting [1]) was more than 10000 nM; on CYP2C9 (setting [2]), 7370 nM; at CYP1A2 (setting [3]) it was more than 10000 nM; at CYP2C19 (setting [4]), 6220 nM; on CYP3A4 (setting [5]) it was 20 nM.

For the compound `CC(C)C1(C#N)CCN(Cc2cncn2[C@H](C)c2ccc(F)cc2)CC1` [Compound 2, (R)-1-((1-(1-(4-fluorophenyl)ethyl)-1H-imidazol-5-yl)methyl)-4-isopropylpiperidine-4-carbonitrile], the half-maximal inhibitory concentration (IC50) was more than 10000 nM on CYP2D6 (setting [1]); more than 10000 nM on CYP2C9 (setting [2]); more than 10000 nM on CYP1A2 (setting [3]); more than 10000 nM at CYP2C19 (setting [4]); 18 nM on CYP3A4 (setting [5]).

Regarding `C[C@H](c1ccc(F)cc1)n1cncc1CN1CCC(C)(C#N)CC1` [Compound 3, (R)-1-((1-(1-(4-fluorophenyl)ethyl)-1H-imidazol-5-yl)methyl)-4-methylpiperidine-4-carbonitrile], the IC50 on CYP2D6 (setting [1]) was 8710 nM; on CYP2C9 (setting [2]) it was more than 10000 nM; on CYP1A2 (setting [3]), more than 10000 nM; at CYP2C19 (setting [4]), more than 10000 nM; on CYP3A4 (setting [5]), 37 nM.

`CC1(C#N)CCN(Cc2cncn2Cc2nc3ccccc3s2)CC1` [Compound 4, 1-((1-(benzo[d]thiazol-2-ylmethyl)-1H-imidazol-5-yl)methyl)-4-methylpiperidine-4-carbonitrile]: the half-maximal inhibitory concentration (IC50) was more than 10000 nM at CYP2D6 (setting [1]); 3270 nM on CYP2C9 (setting [2]); more than 10000 nM on CYP1A2 (setting [3]); 2680 nM at CYP2C19 (setting [4]); 58 nM on CYP3A4 (setting [5]).

Turning to `C[C@H](c1ccc(F)cc1)n1cncc1CN1CCC(C#N)(C2CCCC2)CC1` [Compound 5, (R)-4-cyclopentyl-1-((1-(1-(4-fluorophenyl)ethyl)-1H-imidazol-5-yl)methyl)piperidine-4-carbonitrile], the IC50 was 7330 nM on CYP2D6 (setting [1]); 3250 nM at CYP2C9 (setting [2]); 5570 nM at CYP1A2 (setting [3]); 3740 nM at CYP2C19 (setting [4]); 15 nM on CYP3A4 (setting [5]).

In the case of `CCCC1(C#N)CCN(Cc2cncn2[C@H](C)c2ccc(F)cc2)CC1` [Compound 6, (R)-1-((1-(1-(4-fluorophenyl)ethyl)-1H-imidazol-5-yl)methyl)-4-propylpiperidine-4-carbonitrile], the IC50 was 4960 nM on CYP2D6 (setting [1]); 5670 nM at CYP2C9 (setting [2]); more than 10000 nM at CYP1A2 (setting [3]); 7920 nM at CYP2C19 (setting [4]); 27 nM on CYP3A4 (setting [5]).

Consider `C[C@H](c1ccc(F)cc1)n1cncc1CN1CCC(C#N)(C2CCOCC2)CC1` [Compound 7, (R)-1-((1-(1-(4-fluorophenyl)ethyl)-1H-imidazol-5-yl)methyl)-4-(tetrahydro-2H-pyran-4-yl)piperidine-4-carbonitrile], for which the IC50 is 8480 nM on CYP2D6 (setting [1]); 8170 nM on CYP2C9 (setting [2]); more than 10000 nM at CYP1A2 (setting [3]); more than 10000 nM on CYP2C19 (setting [4]); 21 nM at CYP3A4 (setting [5]).

For `CC(C)CC1(C#N)CCN(Cc2cncn2[C@H](C)c2ccc(F)cc2)CC1` [Compound 8, (R)-1-((1-(1-(4-fluorophenyl)ethyl)-1H-imidazol-5-yl)methyl)-4-isobutylpiperidine-4-carbonitrile], the IC50 at CYP2D6 (setting [1]) worked out at 2490 nM; at CYP2C9 (setting [2]), 2530 nM; at CYP1A2 (setting [3]) it was 9180 nM; on CYP2C19 (setting [4]) it was 3250 nM; on CYP3A4 (setting [5]), 22 nM.

In the case of `CCc1noc(C2(C)CCN(Cc3cncn3[C@H](C)c3ccc(F)cc3)CC2)n1` [Compound 9, (R)-3-ethyl-5-(1-((1-(1-(4-fluorophenyl)ethyl)-1H-imidazol-5-yl)methyl)-4-methylpiperidin-4-yl)-1,2,4-oxadiazole], the IC50 was 2520 nM at CYP2D6 (setting [1]); 2510 nM at CYP2C9 (setting [2]); more than 10000 nM at CYP1A2 (setting [3]); 2270 nM on CYP2C19 (setting [4]); 21 nM at CYP3A4 (setting [5]).

As to `Cc1noc(C2(C)CCN(Cc3cncn3[C@H](C)c3ccc(F)cc3)CC2)n1` [Compound 10, (R)-5-(1-((1-(1-(4-fluorophenyl)ethyl)-1H-imidazol-5-yl)methyl)-4-methylpiperidin-4-yl)-3-methyl-1,2,4-oxadiazole], the 50% inhibitory concentration (IC50) was 2100 nM at CYP2D6 (setting [1]); 2330 nM at CYP2C9 (setting [2]); more than 10000 nM at CYP1A2 (setting [3]); 7020 nM on CYP2C19 (setting [4]); 17 nM at CYP3A4 (setting [5]).

Take `CC(C)c1noc(C2(C)CCN(Cc3cncn3[C@H](C)c3ccc(F)cc3)CC2)n1` [Compound 11, (R)-5-(1-((1-(1-(4-fluorophenyl)ethyl)-1H-imidazol-5-yl)methyl)-4-methylpiperidin-4-yl)-3-isopropyl-1,2,4-oxadiazole]: the IC50 amounted to 5990 nM at CYP2D6 (setting [1]); 2880 nM at CYP2C9 (setting [2]); 5070 nM on CYP1A2 (setting [3]); 3310 nM on CYP2C19 (setting [4]); 21 nM on CYP3A4 (setting [5]).

As for `N#Cc1ccc(C2(n3cncc3CN3CCC(C#N)(c4ccc(F)cc4)CC3)CC2)cc1` [Compound 12, 1-((1-(1-(4-cyanophenyl)cyclopropyl)-1H-imidazol-5-yl)methyl)-4-(4-fluorophenyl)piperidine-4-carbonitrile], the IC50 against CYP2D6 (IC50 (nM) CYP2D6, human liver microsomes 0.1 mg/mL) is 6360 nM; on CYP2C9 (IC50 (nM) CYP2C9, human liver microsomes 0.1 mg/mL) it was 5320 nM; at CYP1A2, 1470 nM; on CYP2C19 (IC50 (nM) CYP2C19, human liver microsomes 0.1 mg/mL) it was 3980 nM; on CYP3A4 (IC50 (nM) CYP3A4, human liver microsomes 0.1 mg/mL), 50 nM.

Turning to `C[C@H](c1ccc(F)cc1)n1cncc1CN1CCC(C#N)(c2ccccn2)CC1` [Compound 13, (R)-1-((1-(1-(4-fluorophenyl)ethyl)-1H-imidazol-5-yl)methyl)-4-(pyridin-2-yl)piperidine-4-carbonitrile], the IC50 on CYP2D6 (setting [1]) was more than 10000 nM; at CYP2C9 (setting [2]) it was 4670 nM; on CYP1A2 (setting [3]) it was more than 10000 nM; at CYP2C19 (setting [4]), 6400 nM; on CYP3A4 (setting [5]), 10 nM.

What is called IC50 is the concentration that inhibits the measured activity by half.
